Test results as given in ChEMBL document CHEMBL5113532, “Design and Characterization of a Natural Arf-GEFs Inhibitor Prodrug CHNQD-01255 with Potent Anti-Hepatocellular Carcinoma Efficacy In Vivo” (J Med Chem, 2022).

Tests used:
[1] = Acute toxicity in po dosed ICR mouse assessed as maximum tolerated dose; format: organism-based; settings: in vivo
[2] = Drug distribution in ICR mouse duodenum at 100 mg/kg, ip measured upto 0.5 hrs by UPLC-MS/MS analysis; format: ADME, organism-based; settings: in vivo
[3] = AUC(0 to t) in ICR mouse at 10 mg/kg, iv measured after 0.083 to 12 hrs by UPLC-MS/MS analysis; format: ADME, organism-based; set-up: time upper 12 hrs, dose 10 mg/kg, time lower 0.083 hrs, route iv; settings: in vivo
[4] = Renal toxicity in ICR mouse assessed as change in blood BUN level at 45 mg/kg, po by biochemical assay; format: organism-based; settings: in vivo
[5] = Renal toxicity in ICR mouse assessed as change in blood CREA level at 45 mg/kg, po by biochemical assay; format: organism-based; settings: in vivo
[6] = Drug distribution in ICR mouse lung at 100 mg/kg, ip measured upto 0.5 hrs by UPLC-MS/MS analysis; format: ADME, organism-based; settings: in vivo
[7] = Drug elimination in ICR mouse kidney at 100 mg/kg, ip measured for 1.5 hrs by UPLC-MS/MS analysis; format: ADME, organism-based; settings: in vivo
[8] = Toxicity in ICR mouse assessed as effect on lung at 45 mg/kg, po measured after 2 weeks by H and E staining based analysis; format: organism-based; settings: in vivo, 336 h
[9] = Drug elimination in ICR mouse lung at 100 mg/kg, ip measured for 1.5 hrs by UPLC-MS/MS analysis; format: ADME, organism-based; settings: in vivo
[10] = Solubility of the compound in saline/PEG400 (80/20% V/V) at pH 7.4; format: physicochemical
[11] = Acute toxicity in ip dosed ICR mouse assessed as maximum tolerated dose; format: organism-based; settings: in vivo
[12] = Clearance in ICR mouse at 45 mg/kg, po measured after 0.083 to 12 hrs by UPLC-MS/MS analysis; format: ADME, organism-based; settings: in vivo, time 0.083-12 hrs
[13] = Toxicity in ICR mouse assessed as change in body weight at 100 mg/kg, ip qd measured for 14 days; format: organism-based; settings: in vivo, 336 h, time 14 day
[14] = Toxicity in ICR mouse assessed as change in body weight at 45 mg/kg, po qd measured for 14 days; format: organism-based; settings: in vivo, 336 h, time 14 day
[15] = Solubility of the compound in saline/DMSO (95/5% V/V) at pH 7.4; format: physicochemical
[16] = Apparent volume of distribution in ICR mouse at 45 mg/kg, po measured after 0.083 to 12 hrs by UPLC-MS/MS analysis; format: ADME, organism-based; settings: in vivo, time 0.083-12 hrs
[17] = Cmax in ICR mouse at 45 mg/kg, po measured after 0.083 to 12 hrs by UPLC-MS/MS analysis; format: ADME, organism-based; set-up: dose 45 mg/kg, time upper 12 hrs, time lower 0.083 hrs, route po; settings: in vivo
[18] = Renal toxicity in ICR mouse assessed as change in blood CK level at 45 mg/kg, po by biochemical assay; format: organism-based; settings: in vivo
[19] = Hepatotoxicity in ICR mouse assessed as change in blood ALP level at 45 mg/kg, po by biochemical assay; format: toxicity, organism-based; settings: in vivo
[20] = Drug distribution in ICR mouse liver at 100 mg/kg, ip measured upto 0.5 hrs by UPLC-MS/MS analysis; format: ADME, organism-based; settings: in vivo
[21] = Drug elimination in ICR mouse liver at 100 mg/kg, ip measured for 1.5 hrs by UPLC-MS/MS analysis; format: ADME, organism-based; settings: in vivo
[22] = Drug distribution in ICR mouse Spleen at 100 mg/kg, ip measured upto 0.5 hrs by UPLC-MS/MS analysis; format: ADME, organism-based; settings: in vivo
[23] = Renal toxicity in ICR mouse assessed as change in blood UA level at 45 mg/kg, po by biochemical assay; format: organism-based; settings: in vivo

C[C@H]1CCC/C=C/[C@@H]2C[C@H](OC(=O)OCc3cccnc3)C[C@H]2[C@H](O)/C=C/C(=O)O1
MTD [1]: > 750 mg/kg | Drug uptake [2]: Active | AUC(0-t) [3]: 519 ng·h/mL | Activity [4]: Non-Toxic | Activity [5]: Non-Toxic | Drug uptake [6]: Active | Drug excretion [7]: Active | Activity [8]: Non-Toxic | Drug excretion [9]: Active | solubility [10]: < 1000 µg/mL | MTD [11]: > 100 mg/kg | CL/F [12]: 598 L/h/kg | Activity [13]: Non-Toxic | Activity [14]: Non-Toxic | solubility [15]: < 1000 µg/mL | Vz [16]: 6339.7436 L/kg | Cmax [17]: 20.3 ng/mL | Activity [18]: Non-Toxic | Activity [19]: Non-Toxic | Drug uptake [20]: Active | Drug excretion [21]: Active | Drug uptake [22]: Active | Activity [23]: Non-Toxic
